Reference: patent US20220251124A1, “3,5-BIS(PHENYL)-1H-HETEROARYL DERIVATIVES AS MEDICAMENTS” (INSTITUTE OF BIOTECHNOLOGY CAS, V.V.I., priority 2019, published 2022)

How the values were obtained:
MDA-MB-231 [1] = assay: annexin V/PI staining, cell death induction, 48 hrs; assay type: cell-based
MCF7 cells = assay: real time monitoring of cell confluence via Juli FL; assay type: cell-based; conditions: 30 nM
Procedure: We also tested the ability of compound 1 to suppress proliferation of cancer cells by an alternative approach via the real time monitoring with a cellular analyser Juli F L. In brief, MCF7 cells were seeded in a 6-well plate the day before to reach approximately 5% confluence on the following day. Next day, the camera of the instrument was focused on a particular field with approximately 5% confluence and cells were continuously monitored, recording the confluence and visual appearance every 30 minutes for 48 hrs. Values were then expressed either as simple confluence at the end of the experiment or as slope of the line representing the confluence during a given period of time (Table 5).

[2] = system: MCF7 mammospheres (cancer stem-like cells); assay: formation and growth of mammospheres, Cell Titer Glo 3D; assay type: cell-based; conditions: 1 μM, 140 hrs
Procedure: To test the effect of compound 1 on the viability and proliferation of other resistant cancer cell types, we utilized a model of cancer stem-like cells that can be cultivated in vitro, so-called “mammospheres”. […] In this assay MCF7 spheres were dissociated to single cells/small spheres, seeded 10,000 cells per well on a special cell culture plastic that is non adherent in the Mammocult medium (Stem cell technologies) and compound 1 and compound 2 at 1 μM were added. This represents the non-cytotoxic concentration. Cells were left to grow and generate spheres for 140 hrs. The amount of cells was then measured by the Cell TiterGlo 3D reagent (Promega) that determines cell counts of 3D cultured cells as a function of their ATP content that is determined by a chemiluminescent assay.

MCF7 [3] = assay: cell cycle distribution, Vybrant DyeCycle Violet, flow cytometry; assay type: cell-based; conditions: 1 μM
Procedure: In order to define the effect on cellular level, we investigated the effect of compound 1 and 2 at non-cytotoxic concentrations of the drugs (1 μM) on cell cycle. Cells were cultivated with the compounds for 24 and 48 hrs and then stained with Vybrant DyeCycle VioletReady Flow reagent (ThermoFisher Scientific) that binds to DNA and analyzed by Flow cytometry and Kaluza program to define the proportions of G1,S and G2/M phases of cell cycle. It is evident that both compounds lead to accumulation of cells in G1 phase if the cell cycle, which become more prominent at later time points (see Table 12, 13).

[4] = system: triple negative breast cancer cells (MDA-MB-231) xenograft; assay: tumor growth in xenograft model; assay type: in vivo, NOD/SCID gamma mice; conditions: for relative tumor size compared to day 0: 2/week
Procedure: The effect of compound 1 on tumor growth in vivo was assessed in a xenograft model of triple negative breast cancer cells (MDA-MB-231) injected into NOD/SCID gamma mice. 1×10^6 cells were injected subcutaneously into each mouse. When the tumors were approximately 10 mm^3 in volume, the animals were randomly divided in two groups and injected intra-peritoneally with either compound 1 (2 mg/kg in corn oil) or vehicle (2.5% DMSO in corn oil), twice per week for 21 days. Tumor size was determined by ultrasound using a Vevo 3100 Preclinical Imaging System (VisualSonics).

MCF7 [5] = assay: cellular ROS, DCF-DA probe, flow cytometry; assay type: cell-based; conditions: 5 μM
Procedure: (§1) The effect of compound 1 on generation of cellular reactive oxygen species (ROS) was evaluated in MCF7 and MDA-MB-231 cells using a cell permeable ROS probe 2′,7′-dichlorodihydrofluorescein diacetate (DCF-DA; Sigma-Aldrich) that measures several reactive species and becomes fluorescent upon oxidation. Cells treated with compound 1 or compound 2 (5 μM) for the described time interval were stained with the probe and then analyzed via Flow cytometry.

MDA-MB-231 [6] = assay: cellular ROS, DCF-DA probe, flow cytometry; assay type: cell-based; conditions: 5 μM
Procedure: as §1

O=C(NCCCCCCCCCC[P+](c1ccccc1)(c1ccccc1)c1ccccc1)c1ccc(-n2nc(-c3ccccc3O)nc2-c2ccccc2O)cc1 [Compound 1, (10-(4-(3,5-bis(2-hydroxyphenyl)-1H-1,2,4-triazol-1-yl)benzamido)decyl) triphenylphosphonium Chloride]
dead cells (AnnexinV/PI) (MDA-MB-231 [1]; 5 μM): 53.5 (23.1) %
dead cells (AnnexinV/PI) (MDA-MB-231 [1]; 5 μM, +Fe^+3 (pre-loaded with iron at a 2:1 ratio)): 15.9 (2.7) %
dead cells (AnnexinV/PI) (MDA-MB-231 [1]; 5 μM, alone): 61.1 (18.8) %
dead cells (AnnexinV/PI) (MDA-MB-231 [1]; 10 μM, +Fe^+3 (pre-loaded with iron at a 2:1 ratio)): 22.4 (6.1) %
dead cells (AnnexinV/PI) (MDA-MB-231 [1]; 10 μM, alone): 88.2 (5.8) %
effect on cellular proliferation (MCF7 cells; MCF7): significant inhibition of cellular proliferation
Final % confluence (MCF7 cells; MCF7, 48 hrs): 15.01 (3.4) %
Slope 0-22 h (confluence versus time) (MCF7 cells; MCF7, Juli FL): 0.258 (0.005)
Slope 22-48 h (confluence versus time) (MCF7 cells; MCF7, Juli FL): 0.404 (0.005)
chemiluminescence ATP values normalized to control sample set as 100 [2]: 6.61 (1.91)
proportion of cells in G1 (MCF7 [3]; 24 hrs): 82.8 (1.6)
proportion of cells in G2 (MCF7 [3]; 24 hrs): 13.2
proportion of cells in S (MCF7 [3]; 24 hrs): 4.0
proportion of cells in G1 (MCF7 [3]; 48 hrs): 75.8 (2.1)
proportion of cells in G2 (MCF7 [3]; 48 hrs): 12.4 (2.5)
proportion of cells in S (MCF7 [3]; 48 hrs): 11.9 (2.3)
effect on tumor growth ([4]; 2 mg/kg intra-peritoneally, twice per week for 21 days): significantly slows down the tumor growth
relative tumor size compared to day 0 ([4]; day 4, 2 mg/kg intra-peritoneally): 1.18 (0.3)
relative tumor size compared to day 0 ([4]; day 7, 2 mg/kg intra-peritoneally): 2.04 (0.3)
relative tumor size compared to day 0 ([4]; day 10, 2 mg/kg intra-peritoneally): 3.00 (0.4)
relative tumor size compared to day 0 ([4]; day 14, 2 mg/kg intra-peritoneally): 4.90 (0.8)
relative tumor size compared to day 0 ([4]; day 17, 2 mg/kg intra-peritoneally): 4.44 (0.3)
relative tumor size compared to day 0 ([4]; day 21, 2 mg/kg intra-peritoneally): 5.12 (0.6)
DCF-DA mean fluorescence (MCF7 [5]; 5 min, MCF7 (0 min = 100)): 161.3 (29.8)
DCF-DA mean fluorescence (MCF7 [5]; 10 min, MCF7): 172.0 (18.9)
DCF-DA mean fluorescence (MCF7 [5]; 15 min, MCF7): 283.8 (36.6)
DCF-DA mean fluorescence (MCF7 [5]; 30 min, MCF7): 857.2 (299.0)
DCF-DA mean fluorescence (MCF7 [5]; 60 min, MCF7): 1435.0 (452.9)
DCF-DA mean fluorescence (MDA-MB-231 [6]; 5 min, MDA-MB-231 (0 min = 100)): 129.9 (17.4)
DCF-DA mean fluorescence (MDA-MB-231 [6]; 10 min, MDA-MB-231): 207.8 (94.2)
DCF-DA mean fluorescence (MDA-MB-231 [6]; 15 min, MDA-MB-231): 258.3 (71.2)
DCF-DA mean fluorescence (MDA-MB-231 [6]; 30 min, MDA-MB-231): 437.5 (105.9)
DCF-DA mean fluorescence (MDA-MB-231 [6]; 60 min, MDA-MB-231): 529.5 (176.1)
